Entries after “also recorded” stand apart in the source; their conditions may differ. Where a SMILES comes first, the peptide text is derived from it.
Experiments:
retinal explants (RGCs) = experiment: Retinotectal explant coculture: cell death in retinal explants and retinal axon growth into tectal slices; format: cell-based, mouse
Experimental: Brains were dissected into ice-cold Gey's balanced salt solution enriched with glucose. […] Retinal explants were abutted against tectal slices. Tissues were placed on the microporous membrane of Millicell wells (Millipore) and maintained in NeuralBasal medium supplemented with B27 (GIBCO Inc., New York) at 37° C. for five days. To exclude the possibility that tectal tissues from mutant mice may affect axonal growth of RGCs, a series of parallel experiments were perforemd in which one retinal explant of each mouse was confronted with the tectum from the same mouse, while the second retinal explant was placed against the tectum from another mouse. With this arrangement, retinal explants from each animal had the possibility of being cocultured with the tectum from a wild-type, heterozygous, or homozygous animal. The number of regenerating axons was sampled by applying the lipophilic carbocyanine fluorescent label, DiI, in crystals to fixed retinal explants. The cocultures were stored in fixative for two-four weeks to allow diffusion of the dye, and labeled retinal axons were viewed with a fluorescence microscope (Nikon).
(§1) Primary cultures of dissociated retinal cells were prepared from P2 wild-type or transgenic animals. RGCs were prelabeled by injecting DiI solution (25% in Dimethyl Formamide) into the tectal region bilaterally in P0 pups. Cells were plated in 24-cell wells treated with poly-L-lysine ([…], 4° C. overnight) and coated with Human Merosin ([…], r.t., 2 hr)(Meyer-Franke, A. and Barres, B. A. Neuron 15, 805-819 (1995)). Cultures were maintained for 2 to 3 days in NeuralBasal medium supplemented with B27. Trypan blue staining was used to examine the viability of retinal ganglion cells (RGCs). Retinotectal cocultures prepared from wild-type P2 mice were described previously and ZVAD (Z-Val-Ala-Asp-CH2F, Enzyme Systems Products) was added to the culture medium at the time of plating. Cell death was detected by staining with the fluorescent dye, SYTOX green fluorescent dead cell stain (Molecular Probes). Cultures were visualized under an inverted Nikon microscope equipped with Nomarski and epifluorescence illumination.
The effect of the ICE inhibitor was also tested in the explant coculture system with tissue prepared from wild-type P2 mice.

[1] = tested on: retinal ganglion cells (RGCs); experiment: Dissociated retinal cell culture: survival and neurite outgrowth of prelabeled RGCs; format: cell-based, mouse
Experimental: as §1
Whether these two activities of neurons, survival and axonal growth, can be separated in vitro was next examined. […]

With CC(C)[C@H](NC(=O)OCc1ccccc1)C(=O)N[C@@H](C)C(=O)N[C@@H](CC(=O)O)C(=O)CF [ZVAD, Z-Val-Ala-Asp-CH2F] (HELM PEPTIDE1{[O=C(OCc1ccccc1)[*:2]].V.A.D.[FC[*:1]]}$$$$V2.0) the “ability to promote axonal growth” value (retinal explants (RGCs); overall conclusion of the ZVAD experiments) was “not sufficient to promote axonal growth; also recorded: not sufficient to support axonal growth”, the “protection of cells from death in retinal explants compared with bcl-2 transgenic mouse” value (retinal explants (RGCs); wild-type P2 mice) was “protected cells from death almost as well as bcl-2” and the “number of growing retinal axons with increasing concentration of ZVAD” value (retinal explants (RGCs); wild-type P2 mice, ZVAD 50, 100, 200 µM) was “did not change significantly”. For the same compound, the “extent of cell death in retinal explants” value (retinal explants (RGCs); wild-type P2 mice, ZVAD 50, 100, 200 µM, SYTOX green dead cell stain) was “reduced the extent of cell death; also recorded: number of dying cells in retinal explants decreased”, the “number of axons that invaded tectal slices, ZVAD-treated wild-type cultures versus bcl-2 transgenic mice” value (retinal explants (RGCs); wild-type P2 mice, fold less than bcl-2 transgenic) was 10 fold and the “neurite outgrowth of labeled RGCs in dissociated culture” value ([1]; ZVAD-treated RGCs from wild-type P2 animals, no neurotrophic factors added, n=36) was “round and devoid of neurites”. The “RGC death in dissociated retinal cell culture” value ([1]; retinae of P2 pups, ZVAD at a concentration of 10 mM or above, after 2 days in culture) was “effectively reduced RGC death”.
